Data set [1] relates to chloroquine-resistant and MDR clone Dd2 of P. falciparum. The data set is described as follows: Antimalarial activity assay, SYBR Green I fluorescence-based method. In kind it is cell-based, Plasmodium falciparum. The method, then: (§1) An antimalarial activity assay was carried out at the Oregon Translational Research and Drug Development Institute (OTRADI). Two strains of P. falciparum were used. The chloroquine-sensitive clone D6, and chloroquine-resistant and MDR clone Dd2 was obtained from the Malaria Research and Reference Reagent Resource Center (MR4) (Manassas, Va.). The parasites were cultured according to the method of Trager and Jensen (Trager and Jensen, Science, 1976, 193:673-675), with minor modifications. The cultures were maintained in human erythrocytes (Lampire Biological Laboratories, Pipersville, Pa.), suspended at 2% hematocrit in RPMI 1640 (Sigma) containing 0.5% Albumax (Invitrogen), […] hypoxanthine (Lancaster), and 50 μg/L gentamicin (Invitrogen), and incubated at 37° C. under a gas mixture of 5% O2, 5% CO2, and 90% N2. In vitro antimalarial activity was determined by a SYBR Green I fluorescence-based method described previously by Smilkstein et al. (Smilkstein et al., Antimicrob. Agents Chemother., 2004, 48:1803-1806). Frozen stock solutions of each test drug (1 mM in DMSO) were thawed, warmed to 37° C., and mixed thoroughly prior to use. Drug solutions were serially diluted with culture medium, and distributed to asynchronous parasite cultures on 96-well plates in quadruplicate in a total volume of 100 μL to achieve 0.2% parasitemia with a 2% hematocrit in a total volume of 100 μL. Automated pipeting and dilution was carried using programmable Precision XS (Bio-Tek, Winooski, Vt.) and Sciclone ALH3000 (Caliper, Hopkinton, Mass.) robotic stations. The plates then were incubated for 72 hours at temperature and gas conditions described above. After incubation, 100 μL of lysis buffer with SYBR Green I was added to each well. The plates were incubated at room temperature for 1 h and then placed in a 96-well fluorescence plate reader (Synergy4, BioTek, Winooski, Vt.) with excitation and emission wavelength at 485 nm and 528 nm, respectively, for measurement of fluorescence. The 50% inhibitory concentration (IC50) was determined by non-linear regression analysis of logistic dose-response curves (GraphPad Prism software).

Data set [2] relates to chloroquine-sensitive clone D6 of P. falciparum. The description is as above. The data set is classed as cell-based, Plasmodium falciparum. To be noted: Plasmodium falciparum. The method, then:
as §1

In data set [3] the test system is Bacillus subtilis. In words: Antibacterial micro-dilution assay (Example 1). The data set is classed as cell-based. The settings on record: 24 hours, read-out: IC50 against Bacillus subtilis. How it is done:
(§2) The antibacterial activity of pactamycin and its analogs was determined by agar diffusion and micro-dilution assays. E. coli, P. aeruginosa, B. subtilis or M. smegmatis, and S. aureus were streaked on nutrient agar (Difco or Beckton-Dickinson) and grown overnight at 37° C. Colonies were transferred to nutrient broth and incubated at 37° C. for 24 hours. Turbidity of the inoculum was measured to a proper density at 600 nm (BioRad, SmartSpec 3000). For plate preparation, inoculum (500 μL) was mixed thoroughly with warm nutrient agar (50 mL) and poured to 25 mL square plates. The agar plates were allowed to solidify and dry for 30 min before assay. Sterile blank paper disks (Becton-Dickinson) were impregnated with pactamycin and its analogs (20 μL) at various concentrations and dried at room temperature. The disks were placed onto inoculated agar plates and incubated at 37° C. for 24 hours. In order to produce a contrast background of the inhibition zone, 0.25% MTT developing dye (1 mL) was added over the plates.
(§3) Micro-dilution assays were performed in 96-well plates. The compounds were serially diluted and added to the bacterial suspension at final concentrations of 1 mM-10 nM, or 0.5 mM-10 nM. After incubation at 37° C. for 24 hours, 0.25% MTT developing dye (50 μL) was added. Each assay was done in triplicate.

Data set [4] relates to Escherichia coli. In words: Antibacterial micro-dilution assay (Example 1). The data set is classed as cell-based. The settings on record: 24 hours, read-out: IC50 against Escherichia coli. The method, then: as §2, §3
In data set [5] the test system is Pseudomonas aeruginosa. In words: Antibacterial micro-dilution assay (Example 1). In kind it is cell-based. The settings on record: 24 hours, read-out: IC50 against Pseudomonas aeruginosa. The method, then:
as §2, §3

In data set [6] the test system is Staphylococcus aureus. In words: Antibacterial micro-dilution assay (Example 1). In kind it is cell-based. To be noted: 24 hours, read-out: IC50 against Staphylococcus aureus. The method, then:
as §2, §3

Data set [7] relates to Gram-positive and Gram-negative bacteria. The data set is described as follows: Antibacterial agar diffusion and micro-dilution assays, all tested strains (Example 1). The data set is classed as cell-based, S. aureus, B. subtilis, P. aeruginosa, E. coli. To be noted: at the concentrations used. How it is done:
as §2, §3

Data set [8] can be described thus: Cytotoxicity assay (WST-8) against HCT116 cells. In kind it is cell-based. The settings on record: human, HCT116 colorectal carcinoma cells, estimated. The method, then: HCT116 (colorectal carcinoma) cells were seeded onto a 96-well plate at 10,000 cells per well. Cells were treated with either 5, 50, 500 or 5000 nM TM-025, TM-026, N-acetyl-glucosaminyl-3-aminoacetophenone or 5, 25, 50, 100 nM pactamycin in triplicate for 48 hours. For the narrow range concentration assays, cells were treated with either 0.5, 1, 2 or 4 μM TM-025; 1, 2, 3 or 5 μM TM-026; 0.5, 2, 5 or 7 μM N-acetylglucosaminyl-3-aminoacetophenone or 12.5, 25, 50, 100 nM pactamycin in triplicate for 24 or 48 hours. WST-8 [2-(2-methoxy-4-nitrophenyl)-3-[…], monosodium salt] (Dojindo, Rockville, Md.) was added to each well to give an orange-colored formazan product, which is soluble in tissue culture medium. Absorbance was measured at 450 nm. Percent of viable cells was calculated relative to the “No Treatment” and “Solvent Only” wells.

For data set [9], the system named is Mycobacterium smegmatis. In words: Antibacterial agar diffusion assay (Example 2). The data set is classed as cell-based. How it is done: (§4) Antibacterial activity of pactamycin and its analogues was determined by an agar diffusion assay. E. coli, Pseudomonas aeruginosa, Mycobacterium smegmatis, and Staphylococcus aureus were streaked on nutrient agar (Difco) and grown overnight at 37° C. Colonies were transferred to nutrient broth and incubated at 37° C. for 24 hours. Turbidity of the inoculum was measured to a proper density at 600 nm (BioRad, SmartSpec 3000). For plate preparation, inoculum (500 μL) was mixed thoroughly with warm nutrient agar (50 mL) and poured to 25 mL square plates. The agar plates were allowed to solidify and dry for 30 minutes before assay. Sterile blank paper disks (Becton-Dickinson) were impregnated with pactamycin and its analogues (20 μL) at various concentrations and dried at room temperature. The disks were placed onto inoculated agar plates and incubated at 37° C. for 24 hours. In order to produce a contrast background of the inhibition zone, 0.25% MTT developing dye (1 mL) was added over the plates.

Data set [10] relates to Pseudomonas aeruginosa. The data set is described as follows: Antibacterial agar diffusion assay (Example 2). In kind it is cell-based. The method, then:
as §4

Data set [11] deals with Staphylococcus aureus. In words: Antibacterial agar diffusion assay (Example 2). In kind it is cell-based. How it is done: as §4
In data set [12] the test system is E. coli. In words: Antibacterial agar diffusion assay (Example 2). The data set is classed as cell-based, Escherichia coli. The method, then: as §4
Data set [13] has as its system Gram-positive and Gram-negative bacteria (S. aureus, M. smegmatis, P. aeruginosa, E. coli). In words: Antibacterial dose-response studies, broth microdilution (Example 2). In kind it is cell-based. To be noted: 0.01 (or 0.1)-100 μM. How it is done: Dose response assays were performed at a 100-μL volume in 200 μL Eppendorf tubes. The compounds were diluted and added to the bacterial suspension at final concentrations of 0.01 (or 0.1)-100 μM. After incubation at 37° C. for 24 hours, turbidity of cultures was measured at 600 nm (Biorad, SmartSpec 3000). Each assay was done in triplicate.
To further evaluate and compare the in vitro efficacy of de-6MSA-pactamycin with that of pactamycin, dose-response studies were done using a broth microdilution method with 0.01 (or 0.1)-100 μM concentrations of pactamycin and de-6MSA-pactamycin (FIGS. 16A-16D). […] Both pactamycin and de-6MSA-pactamycin were maximally active between 1 and 10 μM and effective against both Gram-positive and Gram-negative bacteria.

For data set [14], the system named is human colon cancer HT-29 cells. In words: MTT cell viability assay in HT-29 cells. In kind it is cell-based. How it is done:
The MTT assay was carried out as described by Mosmann (J. Immunol. Methods, 1983, 65:55). Briefly, human colon cancer HT-29 cells (ATCC) were seeded in 96-well plates at a density of 1.0×10^4 cells per well. The growth medium consisted of phenol red-free RPMI 1640 (Invitrogen, Carlsbad, Calif.) containing 10% fetal bovine serum (Invitrogen, Carlsbad, Calif.), glutamine (2 mM), penicillin (100 units/mL) and streptomycin (100 μg/mL). After a 24-hour incubation at 37° C. in a humidified atmosphere of 5% CO2, the medium was removed and replaced with fresh RPMI 1640 medium (with or without 10% FBS and no penicillin or streptomycin). Increasing concentrations of pactamycin, pactamycate, de-6MSA pactamycin, or de-6MSA-pactamycate dissolved in DMSO were added to cells at a volume of 0.2 mL/well. DMSO was added to control media not to exceed a final concentration of 1%. Following a 24-hour incubation, the medium was aspirated from each well and replaced with fresh RPMI medium with 10% FBS and MTT (0.5 mg/mL). […] The plate was shaken for 10 minutes before reading the absorbance at 570 nm using a microplate reader (SpectraMax 250, Molecular Devices, Sunnyvale, Calif., USA). The viability of treated cells was expressed as the percentage of control cells. […]

Data set [15] deals with HT-29 human colon carcinoma cells. The data set is described as follows: SRB growth inhibition assay in HT-29 cells. In kind it is cell-based. To be noted: HT-29 cells, 24 hours. The method, then:
Growth inhibition of HT-29 cells induced by the test compounds was also evaluated by the SRB assay, which is based on measuring total biomass by staining the cellular proteins with sulforhodamine B (Skehan et al., J. Natl. Cancer Inst., 1990, 82:1107). After treating the HT-29 cells with the compounds for 24 hours, the adherent cells grown in 96-well plates were fixed with 10% trichloroacetic acid and incubated for 1 hour at 4° C. The plates were washed five times with tap water, dried, and stained with SRB solution (0.4% wt/vol in 1% acetic acid) for 30 minutes at room temperature. The plates were again washed and dried before adding 10 mM Tris base to solubilize the bound stain. Optical densities (OD) were read at 564 nm in SpectraMax 250 and cell growth of treated cells was expressed as the percentage of control cells, ODtest/ODcontrol×100%.

For the compound `CC(=O)c1cccc(N[C@H]2[C@H](N)[C@@](NC(=O)N(C)C)([C@H](C)O)[C@@](C)(O)[C@@]2(O)COC(=O)c2c(C)cccc2O)c1` [pactamycin], the IC50 in data set [1] (Plasmodium falciparum, DD2, 72 h, P. falciparum Dd2, 72 hours, read-out: Antimalarial IC50 (Dd2)) is approximately 21 nM; in data set [2] (D6, 72 h, P. falciparum D6, 72 hours, read-out: Antimalarial IC50 (D6)), approximately 24 nM; in [3] it was approximately 500000 nM; in data set [4] it was approximately 100000 nM; in [5] it was approximately 500000 nM; in [6], approximately 10000 nM. Moreover, in data set [8], the IC50 is approximately 100 nM. In addition, the IC90 in [1] (Plasmodium falciparum, DD2, 72 h, P. falciparum Dd2, 72 hours, read-out: Antimalarial IC90 (Dd2)) was found to be 187 nM; in data set [2] (D6, 72 h, P. falciparum D6, 72 hours, read-out: Antimalarial IC90 (D6)), 124 nM. Further, the “antibacterial activity in agar diffusion and micro-dilution assays (in words)” value in data set [7] was “strong antibacterial activity”. In addition, the “antibacterial activity, growth of Mycobacterium smegmatis” value in data set [9] is “inhibited the growth”. For the same compound, the “antibacterial activity, growth of Pseudomonas aeruginosa” value in data set [10] is given as “inhibited the growth”. For the same compound, the “antibacterial activity, growth of Staphylococcus aureus” value in data set [11] was “inhibited the growth”. Also, in [12], the “antibacterial activity, growth of E. coli” value was “inhibited the growth”.

For `CC(=O)c1cccc(N[C@H]2[C@H](N)[C@@](NC(=O)N(C)C)([C@H](C)O)[C@@](C)(O)[C@@]2(O)CO)c1` [de-6MSA-pactamycin], the EC50 turned out to be 9 nM in data set [1] (Plasmodium falciparum, Example 2, FIG. 14, multi-drug resistant Dd2, read-out: EC50 against the Dd2 strain) and 7 nM in data set [2] (D6, Example 2, FIG. 14, read-out: EC50 against the D6 strain). Further, in data set [1] (relative to chloroquine), the “times more effective than chloroquine against Dd2” value stood at 10 times. Further, the “antibacterial activity, growth of Mycobacterium smegmatis” value in data set [9] is “inhibited the growth”. For the same compound, the “antibacterial activity, growth of Pseudomonas aeruginosa” value in [10] is “inhibited the growth”. Besides, the “antibacterial activity, growth of Staphylococcus aureus” value in [11] is “inhibited the growth”. Moreover, the “antibacterial activity, growth of E. coli” value in data set [12] is listed as “inhibited the growth”. In addition, the “biological activity compared with pactamycin in dose-response studies” value in data set [13] is on record as “equivalent biological activity with the parent molecule”. For the same compound, the “cytotoxicity profile (MTT-based assay)” value in data set [14] is listed as “equivalent cytotoxicity profiles with the respective parent compounds”. Moreover, in [15], the “cytotoxicity profile (SRB-based assay)” value is “equivalent cytotoxicity profiles with the respective parent compounds”.

Source of the values: US20130231377A1, “PACTAMYCIN ANALOGS AND METHODS OF USE” (State of Oregon acting by and through the state Board of …, priority 2010, published 2013).
